# Measurements published in paper PMC10256842, “Empowering drug off-target discovery with metabolic and structural analysis” (Nature Communications, 2023).
# Biological target: T1, HPPK (6-Hydroxymethyl-7,8-dihydropterin pyrophosphokinase) (Escherichia coli, UniProt P26281)
# T1 construct: gene folK; recombinant HPPK from pET28A, Ni-NTA purified
# T1 sequence (P26281 2-159): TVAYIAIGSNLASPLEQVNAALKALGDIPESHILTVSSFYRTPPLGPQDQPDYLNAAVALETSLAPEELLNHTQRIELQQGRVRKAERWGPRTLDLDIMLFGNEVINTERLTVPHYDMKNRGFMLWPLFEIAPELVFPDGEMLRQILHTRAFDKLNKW
# Assay: KinaseGlo luminescence ATP-depletion assay; substrate starts the reaction and relieves CD15-3 inhibition
# Format: biochemical
smiles,measurement,value
"Nc1nc2c(c(=O)[nH]1)N=C(CO)CN2 [6-Hydroxymethyl-7,8-dihydropterin]",KinaseGlo luminescence ATP-depletion assay; substrate starts the reaction and re,"HPPK reaction was initiated with the introduction of the substrate, 6-Hydroxymethyl-7,8-dihydropterin in the assay buffer"
